Values joined by “and” are separate entries in the source; they are usually repeats but may differ in a detail not shown here. Equal values may be shown once. Toxic doses and inconclusive results are not listed. The calls were made as follows: active = survival T/C of 150% or more; inactive = T/C below 125% in these data.
Test system: P388 leukemia ip, CD2F1 mice, survival T/C
Test: NCI In Vivo Anticancer Drug Screen. Data for tumor model P388 Leukemia (intraperitoneal) in CD2F1 (CDF1) mice
Settings: endpoint: median survival time, higher = longer survival
Outline: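 Mice carrying the transplanted tumor received test compound or vehicle. Survival was recorded in each group, and the value is the treated-group measurement divided by that of the vehicle-treated control group.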

[1] = dose: 50.0 mg/kg/injection, schedule: Q01DX005 (ip), vehicle: Klucel (hydroxypropylcellulose) (HPC)
[2] = dose: 100.0 mg/kg/injection, schedule: Q01DX005 (ip), vehicle: Klucel (hydroxypropylcellulose) (HPC)
[3] = dose: 60.0 mg/kg/injection, schedule: Q01DX005 (ip), vehicle: saline with Tween-80
[4] = dose: 120.0 mg/kg/injection, schedule: Q01DX005 (ip), vehicle: saline with Tween-80
[5] = dose: 240.0 mg/kg/injection, schedule: Q01DX005 (ip), vehicle: saline with Tween-80
[6] = dose: 25.0 mg/kg/injection, schedule: Q01DX009 (ip), vehicle: Klucel (hydroxypropylcellulose) (HPC)
[7] = dose: 50.0 mg/kg/injection, schedule: Q01DX009 (ip), vehicle: Klucel (hydroxypropylcellulose) (HPC)
[8] = dose: 100.0 mg/kg/injection, schedule: Q01DX009 (ip), vehicle: Klucel (hydroxypropylcellulose) (HPC)
[9] = dose: 200.0 mg/kg/injection, schedule: Q01DX009 (ip), vehicle: Klucel (hydroxypropylcellulose) (HPC)
[10] = dose: 12.5 mg/kg/injection, schedule: Q01DX009 (ip), vehicle: saline with Tween-80
[11] = dose: 25.0 mg/kg/injection, schedule: Q01DX009 (ip), vehicle: saline with Tween-80
[12] = dose: 50.0 mg/kg/injection, schedule: Q01DX009 (ip), vehicle: saline with Tween-80
[13] = dose: 100.0 mg/kg/injection, schedule: Q01DX001 (ip), vehicle: saline with Tween-80
[14] = dose: 200.0 mg/kg/injection, schedule: Q01DX001 (ip), vehicle: saline with Tween-80
[15] = dose: 400.0 mg/kg/injection, schedule: Q01DX001 (ip), vehicle: saline with Tween-80
[16] = dose: 50.0 mg/kg/injection, schedule: Q01DX009 (ip), vehicle: saline
[17] = dose: 100.0 mg/kg/injection, schedule: Q01DX009 (ip), vehicle: saline
[18] = dose: 200.0 mg/kg/injection, schedule: Q01DX009 (ip), vehicle: saline
[19] = dose: 200.0 mg/kg/injection, schedule: Q01DX005 (ip), vehicle: Klucel (hydroxypropylcellulose) (HPC)
[20] = dose: 50.0 mg/kg/injection, schedule: Q01DX005 (ip), vehicle: saline with Tween-80
[21] = dose: 100.0 mg/kg/injection, schedule: Q01DX005 (ip), vehicle: saline with Tween-80

Measured: T/C

Fc1cccc(C(Nc2nncs2)Nc2nncs2)c1
inactive: [1] 108 % of control and 97 % of control | [2] 112 % of control and 114 % of control
active: dose: 400.0 mg/kg/injection, schedule: Q01DX005 (ip), vehicle: Klucel (hydroxypropylcellulose) (HPC) 159 % of control

Cc1ncc(CSC(=N)N)n1Cc1ccccc1
inactive: dose: 8.5 mg/kg/injection, schedule: Q01DX009 (ip), vehicle: saline 115 % of control

C=C1C(=O)OC2CC3(C)OC(=CC3=O)/C(C)=C\C(OC(=O)C3(C)OC3C)C12 (centres undefined)
inactive: dose: 1.56 mg/kg/injection, schedule: Q01DX005 (ip), vehicle: distilled water + Tween-80 105 % of control | dose: 3.12 mg/kg/injection, schedule: Q01DX005 (ip), vehicle: distilled water + Tween-80 99 % of control | dose: 6.25 mg/kg/injection, schedule: Q01DX005 (ip), vehicle: distilled water + Tween-80 96 % of control | dose: 12.5 mg/kg/injection, schedule: Q01DX005 (ip), vehicle: distilled water + Tween-80 101 % of control

C#CC(C)(C)Oc1ccc2c(=O)c(-c3ccc(OC)c(OC)c3)coc2c1
inactive: [3] 90 % of control | [4] 92 % of control | [5] 89 % of control

O=S(=O)(N/N=C/c1ccccc1)c1ccccc1
inactive: [6] 106 % of control | [7] 97 % of control | [8] 99 % of control | [9] 106 % of control

CC[C@H]1CN2CCc3cc(OC)c(OC)cc3[C@@H]2C[C@@H]1C[C@@H]1c2cc(OC)c(OC)cc2CCN1N=O
inactive: dose: 6.25 mg/kg/injection, schedule: Q01DX009 (ip), vehicle: saline with Tween-80 96 % of control | [10] 99 % of control | [11] 107 % of control | [12] 100 % of control

CC(=O)Nc1nc([N+](=O)[O-])c(C(C)C)s1
inactive: [13] 98 % of control | [14] 97 % of control | [15] 93 % of control

CCCCCC(C)COS(=O)(=O)c1ccc([N+](C)(C)C)cc1 (centres undefined)
inactive: [10] 102 % of control | [11] 103 % of control | [12] 105 % of control

C=C(C)C(=O)N1c2ccc(OC)cc2CC1C(=O)OCC (centres undefined)
inactive: dose: 60.0 mg/kg/injection, schedule: Q01DX005 (ip), vehicle: saline + Tween-80 + alcohol 102 % of control | dose: 120.0 mg/kg/injection, schedule: Q01DX005 (ip), vehicle: saline + Tween-80 + alcohol 100 % of control | dose: 240.0 mg/kg/injection, schedule: Q01DX005 (ip), vehicle: saline + Tween-80 + alcohol 97 % of control

COc1cc(/C=C/C(=O)N2CCN(CC(=O)N3CCCC3)CC2)cc(OC)c1OC
inactive: [16] 100 % of control | [17] 94 % of control | [18] 95 % of control

CCOC(=O)c1cccc2c([N+](=O)[O-])c([N+](=O)[O-])cc(C(=O)OCC)c12
inactive: [13] 99 % of control | [14] 102 % of control | [15] 99 % of control

OCC1=C(CO)CC2=C(CC=CC2)C1
inactive: [1] 100 % of control | [2] 99 % of control | [19] 97 % of control

C=C1C(=O)O[C@H]2[C@H]1[C@H](OC(=O)/C(C)=C\C)CC(=C)[C@@H]1[C@H](O)[C@H]3O[C@@]3(C)[C@@]12O
inactive: dose: 6.25 mg/kg/injection, schedule: Q01DX009 (ip), vehicle: saline 102 % of control | dose: 12.5 mg/kg/injection, schedule: Q01DX009 (ip), vehicle: saline 106 % of control and 111 % of control | dose: 25.0 mg/kg/injection, schedule: Q01DX009 (ip), vehicle: saline 112 % of control and 113 % of control | [16] 121 % of control | [17] 109 % of control

CN1C(c2ccccc2)CC(=C(C#N)c2ccccc2)CC1c1ccccc1 (centres undefined)
inactive: dose: 30.0 mg/kg/injection, schedule: Q01DX005 (ip), vehicle: Klucel (hydroxypropylcellulose) (HPC) 103 % of control | dose: 60.0 mg/kg/injection, schedule: Q01DX005 (ip), vehicle: Klucel (hydroxypropylcellulose) (HPC) 107 % of control | dose: 120.0 mg/kg/injection, schedule: Q01DX005 (ip), vehicle: Klucel (hydroxypropylcellulose) (HPC) 93 % of control | dose: 240.0 mg/kg/injection, schedule: Q01DX005 (ip), vehicle: Klucel (hydroxypropylcellulose) (HPC) 104 % of control

O=C1CN(c2ccc(Cl)cc2)C(=O)CN1/N=C/c1ccc(O)c(O)c1
inactive: [20] 99 % of control | [21] 93 % of control

O=C(N/N=C\c1c(O)ccc2ccccc12)C1CC1
inactive: [1] 103 % of control | [2] 97 % of control | [19] 101 % of control

C=C(C)C(=O)OC1c2c(C)coc2C(=O)C2CCCC(C)C21C (centres undefined)
inactive: [11] 101 % of control | [12] 98 % of control | dose: 100.0 mg/kg/injection, schedule: Q01DX009 (ip), vehicle: saline with Tween-80 102 % of control | dose: 200.0 mg/kg/injection, schedule: Q01DX009 (ip), vehicle: saline with Tween-80 96 % of control

CCOC(=O)/C(=C(/C)OC(C)=O)c1ccc([N+](=O)[O-])cc1[N+](=O)[O-]
inactive: [16] 89 % of control | [17] 94 % of control | [18] 93 % of control

CC1=CC(OC2C=C(C)C(=O)O2)OC1=O (centres undefined)
inactive: dose: 100.0 mg/kg/injection, schedule: Q04DX002 (ip), vehicle: saline 100 % of control | dose: 200.0 mg/kg/injection, schedule: Q04DX002 (ip), vehicle: saline 100 % of control | dose: 400.0 mg/kg/injection, schedule: Q04DX002 (ip), vehicle: saline 104 % of control

O=C1C(Cl)=C(Nc2cccc3ccccc23)C(=O)C(Cl)=C1Nc1cccc2ccccc12
inactive: [1] 95 % of control | [2] 88 % of control | [19] 88 % of control

CC12CC3CC(C)(C1)CC(C/C=N/NC(N)=O)(C3)C2
inactive: [7] 102 % of control | [8] 92 % of control | [9] 99 % of control

Cc1cc(C)nc(NS(=O)(=O)c2ccc(N=Cc3c4ccccc4nc4cc(Cl)ccc34)cc2)n1
inactive: [20] 93 % of control | [21] 93 % of control | dose: 200.0 mg/kg/injection, schedule: Q01DX005 (ip), vehicle: saline with Tween-80 93 % of control

CNC(=O)N(C)C(C)=O
inactive: dose: 100.0 mg/kg/injection, schedule: Q04DX003 (ip), vehicle: saline 123 % of control and 94 % of control | dose: 200.0 mg/kg/injection, schedule: Q04DX003 (ip), vehicle: saline 99 % of control and 124 % of control

O=C(O)C(OC(=O)C(F)(F)F)C(F)(F)C(F)(F)C(F)(F)F (centres undefined)
inactive: [3] 95 % of control | [4] 89 % of control | [5] 99 % of control

CNC(=O)OCc1c(COC(=O)NC)c(C)n(-c2ccc(OC)cc2)c1C
active: dose: 12.5 mg/kg/injection, schedule: Q01DX009 (ip), vehicle: Klucel (hydroxypropylcellulose) (HPC) 152 % of control | [6] 153 % of control | [7] 171 % of control

COC(=O)c1c(C(=O)OC)c(-c2ccccc2)n(CCn2c(-c3ccccc3)c(C(=O)OC)c(C(=O)OC)c2-c2ccccc2)c1-c1ccccc1
inactive: [1] 96 % of control | [2] 93 % of control | [19] 95 % of control

NS(=O)(=O)c1ccc(N2CCS(=O)(=O)CC2)cc1
inactive: [16] 101 % of control | [17] 90 % of control | [18] 97 % of control

C=CCOc1ccccc1/C(CC)=N/N(C)C
inactive: [16] 111 % of control | [17] 100 % of control

[NH-]CC(=O)O.[NH-]CC(=O)O.[NH-]CC(=O)O.[NH-]CC(=O)O.[Pt+4]
inactive: dose: 12.5 mg/kg/injection, schedule: Q01DX009 (ip), vehicle: distilled water + Tween-80 93 % of control | dose: 25.0 mg/kg/injection, schedule: Q01DX009 (ip), vehicle: distilled water + Tween-80 94 % of control | dose: 50.0 mg/kg/injection, schedule: Q01DX009 (ip), vehicle: distilled water + Tween-80 101 % of control | dose: 100.0 mg/kg/injection, schedule: Q01DX009 (ip), vehicle: distilled water + Tween-80 104 % of control | dose: 200.0 mg/kg/injection, schedule: Q01DX009 (ip), vehicle: distilled water + Tween-80 104 % of control

CCOC(=O)N1c2ccccc2C=CC1OCC (centres undefined)
inactive: dose: 6.0 mg/kg/injection, schedule: Q04DX003 (ip), vehicle: other 95 % of control | dose: 12.0 mg/kg/injection, schedule: Q04DX003 (ip), vehicle: other 100 % of control | dose: 25.0 mg/kg/injection, schedule: Q04DX003 (ip), vehicle: other 100 % of control

Source: PubChem BioAssay AID330 (DTP/NCI, 2004)
